IC50 data for four molecules are collected here from patent publication US20150239905A1, “IMIDAZOPYRIDINE COMPOUNDS” (Proximagen Limited, priority 2008, published 2015).

This assay addresses T1, purified recombinantly expressed human SSAO (Homo sapiens, UniProt Q16853).
T1 construct: made in house
T1 sequence (Q16853 29-763 limits assumed): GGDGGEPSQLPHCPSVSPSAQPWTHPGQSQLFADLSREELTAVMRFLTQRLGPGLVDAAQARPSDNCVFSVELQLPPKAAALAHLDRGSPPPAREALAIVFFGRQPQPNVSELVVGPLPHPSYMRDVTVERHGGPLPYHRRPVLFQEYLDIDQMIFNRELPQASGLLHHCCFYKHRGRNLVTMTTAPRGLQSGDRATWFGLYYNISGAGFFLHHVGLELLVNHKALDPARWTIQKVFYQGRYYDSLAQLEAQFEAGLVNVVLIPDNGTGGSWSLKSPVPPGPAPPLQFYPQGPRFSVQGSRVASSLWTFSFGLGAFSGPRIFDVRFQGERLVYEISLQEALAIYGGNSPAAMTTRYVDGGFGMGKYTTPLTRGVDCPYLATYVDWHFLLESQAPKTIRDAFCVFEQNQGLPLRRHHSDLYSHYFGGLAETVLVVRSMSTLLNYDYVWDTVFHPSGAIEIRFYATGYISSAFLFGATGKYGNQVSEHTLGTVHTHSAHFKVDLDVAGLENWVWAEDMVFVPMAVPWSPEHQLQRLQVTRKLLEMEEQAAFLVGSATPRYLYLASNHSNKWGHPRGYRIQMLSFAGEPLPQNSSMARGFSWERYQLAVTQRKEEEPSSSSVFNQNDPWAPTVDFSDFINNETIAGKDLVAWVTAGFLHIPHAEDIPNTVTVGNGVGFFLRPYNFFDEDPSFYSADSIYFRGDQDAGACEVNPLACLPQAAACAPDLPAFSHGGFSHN
The assay can be described thus: SSAO enzyme inhibition assay (benzylamine substrate; hydrogen peroxide/HRP-coupled or 14C-benzaldehyde detection). The assay is classed as biochemical. The settings on record: human recombinant SSAO, benzylamine as substrate, rt. The protocol:
All primary assays were performed in rt with purified recombinantly expressed human SSAO. Enzyme was prepared essentially as described in Öhman et al. (Protein Expression and Purification 46 (2006) 321-331). In addition, secondary- and selectivity assays were performed using SSAO prepared from various tissues or purified rat recombinant SSAO. The enzyme activity was assayed with benzylamine as substrate by measuring either benzaldehyde production, using ^14C-labeled substrate, or by utilizing the production of hydrogen peroxide in a horseradish peroxidise (HRP) coupled reaction. Briefly, test compounds were dissolved in dimethyl sulfoxide (DMSO) to a concentration of 10 mM. Dose-response measurements were assayed by either creating 1:10 serial dilutions in DMSO to produce a 7 point curve or by making 1:3 serial dilutions in DMSO to produce 11 point curves. The top concentrations were adjusted depending on the potency of the compounds and subsequent dilution in reaction buffer yielded a final DMSO concentration≦2%.
In a horseradish peroxidise (HRP) coupled reaction, hydrogen peroxide oxidation of 10-acetyl-3,7-dihydroxyphenoxazine produced resorufin, which is a highly fluorescent compound (Zhout and Panchuk-Voloshina. Analytical Biochemistry 253 (1997) 169-174; Amplex® Red Hydrogen Peroxide/peroxidise Assay kit, Invitrogen A22188). Enzyme and compounds in 50 mM sodium phosphate, pH 7.4 were set to pre-incubate in flat-bottomed microtiter plates for approximately 15 minutes before initiating the reaction by addition of a mixture of HRP, benzylamine and Amplex reagent. Benzylamine concentration was fixed at a concentration corresponding to the Michaelis constant, determined using standard procedures. Fluorescence intensity was then measured at several time points during 1-2 hours, exciting at 544 nm and reading the emission at 590 nm. For the human SSAO assay final concentrations of the reagents in the assay wells were: SSAO enzyme […], benzylamine 100 μM, Amplex reagent 20 μM, HRP 0.1 U/mL and varying concentrations of test compound. The inhibition was measured as % decrease of the signal compared to a control without inhibitor (only diluted DMSO). The background signal from a sample containing no SSAO enzyme was subtracted from all data points. Data was fitted to a four parameter logistic model and IC50 values were calculated using the GraphPad Prism 4 or XLfit 4 programs.
SSAO activity was assayed using 14C-labeled benzylamine and analysed by measuring radioactive benzaldehyde. […] Phase separation occurred instantly and activity was read in a Topcount scintillation counter (Perkin-Elmer). […] Data was analysed as above.
For the molecule `O=C(c1ccc2nc(-c3ccc(Cl)cc3)c(CO)n2c1)N1CCC(CO)CC1` [Example 62, (1-{[2-(4-Chlorophenyl)-3-(hydroxymethyl)imidazo[1,2-a]pyridin-6-yl]carbonyl}piperidin-4-yl)methanol], the IC50 is 155 nM. Consider `CC(O)c1cn2c(CO)c(-c3ccc(Cl)cc3)nc2s1` (stereo not shown) [Example 106, 1-[6-(4-Chlorophenyl)-5-(hydroxymethyl)imidazo[2,1-b][1,3]thiazol-2-yl]ethanol], for which the IC50 was 89 nM. Take `COc1cccc(-c2nc3cnc(Br)cn3c2CO)c1` [Example 81, [6-Bromo-2-(3-methoxyphenyl)imidazo[1,2-a]pyrazin-3-yl]methanol]: the half-inhibitory concentration (IC50) is 248 nM. As for `OCc1c(-c2ccc(Br)cc2)nc2ccc(C(F)(F)F)cn12` [Example 23, [2-(4-Bromophenyl)-6-(trifluoromethyl)imidazo[1,2-a]pyridin-3-yl]methanol], the figure is 88 nM.
